Target: Sigma non-opioid intracellular receptor 1 (Cavia porcellus) (UniProt Q60492)
Assay: Binding affinity was evaluated using [3H]pentazocine binding to sigma-1 receptor from guinea pig brain

Sigma non-opioid intracellular receptor 1 (Cavia porcellus), sequence (Q60492 whole entry, looked up): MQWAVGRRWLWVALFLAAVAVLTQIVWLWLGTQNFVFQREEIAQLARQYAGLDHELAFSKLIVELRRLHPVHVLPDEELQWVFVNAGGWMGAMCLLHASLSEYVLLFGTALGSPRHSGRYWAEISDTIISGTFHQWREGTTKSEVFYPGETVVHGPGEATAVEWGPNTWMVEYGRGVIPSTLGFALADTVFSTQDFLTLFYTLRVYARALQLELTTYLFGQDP

Compound | IC50
CC1CN(CCCn2c3ccccc3c3ccccc32)CC(C)N1CCCCCCN=C=S (centres undefined) [9-{3-[4-(6-Isothiocyanato-hexyl)-3,5-dimethyl-piperazin-1-yl]-propyl}-9H-carbazole] | 707 nM
CC1CN(CCCn2c3ccccc3c3ccccc32)CC(C)N1CCCN=C=S (centres undefined) [9-{3-[4-(3-Isothiocyanato-propyl)-3,5-dimethyl-piperazin-1-yl]-propyl}-9H-carbazole] | 1830 nM
CC1CN(CCCn2c3ccccc3c3ccccc32)CC(C)N1CCN=C=S (centres undefined) [9-{3-[4-(2-Isothiocyanato-ethyl)-3,5-dimethyl-piperazin-1-yl]-propyl}-9H-carbazole] | 949 nM
C[C@H]1CN(CCCn2c3ccccc3c3ccccc32)C[C@H](C)N1C | 897 nM

— BindingDB's records for doi:10.1021/jm9705519 (National Institute On Drug Abuse-Intramural Research Program, 1998)
